Experimental findings from patent US20240325572A1, “N-HETEROCYCLYL SUBSTITUTED 2-CYANO-3-(NAPHTHALEN-2-YL)ACRYLAMIDE DERIVATIVES AS FLUOROPHORS FOR DETECTION OF AMYLOID AND AMYLOID-LIKE PROTEINS FOR DIAGNOSIS OF NEURODEGENERATIVE DISORDERS” (Amydis, Inc., priority 2021, published 2024) are described below.

This experiment addresses T1, aggregated amyloid beta (Aβ1-42) (Homo sapiens, UniProt P05067).
T1 construct: Aβ1-42 peptide was aggregated in vitro using the following procedure
The experiment in a line: In vitro binding studies of compounds with amyloid beta: fluorescent emission spectra with and without aggregated Aβ. The settings on record: fold increase at maximum emission (compound+Aβ/compound), 4 μM compound, 5 μM aggregated Aβ in 1×PBS; for Fold Increase @ 450 nm: excitation 450 nm; for Fold Increase @ 488 nm: excitation 488 nm. Here is the method:
The fluorescent properties and emission spectra of compounds described herein with aggregated amyloid beta (Aβ1-42) were characterized as described below.
Emission spectra for compounds described herein were collected after incubation of the compounds with and without aggregated Aβ at specific excitation wavelengths (450 nm and 488 nm) employed in standard ocular imaging equipment.
Aβ1-42 peptide was aggregated in vitro using the following procedure. Aβ42 (HFIP) was removed from the freezer and allowed to warm to room temperature, then 1 mg of Aβ42 was dissolved in 215 μL of ddH2O for about 10-20 mins at room temperature. To the resulting solution, 2 mL of ddH2O was added to provide a 100 μM stock solution. A 100 μL aliquot was sampled and frozen (non-aggregated sample). The tubes were placed in a thermoshaker at 350 rpm for 3 days. Care was taken to avoid generating bubbles. Aβ aggregation was confirmed by measuring binding to Thioflavin T (ThT). Aggregated Aβ1-42 peptide was then portioned into 150 μL aliquots and stored at −80° C.
The fluorescent emission spectra were measured as follows to determine binding of Aβ to test compounds described herein. The Shimadzu fluorimeter was turned on and allowed to warm up for ˜60 minutes. The test compounds were then removed from the −20° C. freezer and were allowed to warm to room temperature. The 100 μM aggregated Aβ solution was then removed from the −80° C. freezer and also allowed to warm to room temperature. 250 μM solutions of each test compound in DMSO were then prepared. These were then used to prepare 4 μM solutions of each test compound, with and without 5 μM aggregated Aβ in 1×PBS, in triplicates. Using a cuvette, the fluorescent emission spectra were measured for each test compound+Aβ solution, employing a DMSO/PBS solution as a blank. Each sample was tested at an excitation of 450 nm and 488 nm. Fluorescent emission spectra were then collected for each 4 μM test compound solution alone. The resulting data were used to plot intensity vs. wavelength for each emission scan.

T1 sequence (P05067 672-713 limits assumed): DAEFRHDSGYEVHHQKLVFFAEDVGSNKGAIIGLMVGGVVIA

Take `N#C/C(=C\c1ccc2cc(N3CCCCC3)ccc2c1)C(=O)NCC(O)CO` (centres unmarked) [Compound 4, (E)-2-cyano-N-(2,3-dihydroxypropyl)-3-(6-(piperidin-1-yl)naphthalen-2-yl)acrylamide, reference compound]: the “Fold Increase @ 450 nm” value came to 15.28 and the “Fold Increase @ 488 nm” value is recorded as 18.53.
Taken in the same sequence, the figures for `N#C/C(=C\c1ccc2cc(N3CCCC3)ccc2c1)C(=O)NCC(O)CO` (centres unmarked) [Compound 5, (E)-2-cyano-N-(2,3-dihydroxypropyl)-3-(6-(pyrrolidin-1-yl)naphthalen-2-yl)acrylamide] were 18.18 and 22.81.
Taken in the same sequence, the figures for `N#C/C(=C\c1ccc2ccccc2c1N1CCCCC1)C(=O)NCC(O)CO` (centres unmarked) [Compound 6, (E)-2-cyano-N-(2,3-dihydroxypropyl)-3-(1-(piperidin-1-yl)naphthalen-2-yl)acrylamide] were 7.12 and 17.18.
Taken in the same sequence, the figures for `N#C/C(=C\c1ccc2ccccc2c1N1CCC1)C(=O)NCC(O)CO` (centres unmarked) [Compound 7, (E)-3-(1-(azetidin-1-yl)naphthalen-2-yl)-2-cyano-N-(2,3-dihydroxypropyl)acrylamide] were 4.31 and 2.84.
Turning to `N#C/C(=C\c1ccc2cc(N3CCCCC3)ccc2c1)C(=O)CC[C@H](O)CO` [Compound 8, (S,E)-6,7-dihydroxy-3-oxo-2-((6-(piperidin-1-yl)naphthalen-2-yl)methylene)heptanenitrile], the “Fold Increase @ 450 nm” value is 9.48 and the “Fold Increase @ 488 nm” value came out at 19.60.
As to `N#C/C(=C\c1ccc2cc(N3CCCCC3)ccc2c1)C(=O)CCCOCCOCCO` [Compound 9, (E)-6-(2-(2-hydroxyethoxy)ethoxy)-3-oxo-2-((6-(piperidin-1-yl)naphthalen-2-yl)methylene)hexanenitrile], the “Fold Increase @ 450 nm” value turned out to be 10.16 and the “Fold Increase @ 488 nm” value turned out to be 9.11.
Taken in the same sequence, the figures for `N#C/C(=C\c1ccc2cc(N3CCC3)ccc2c1)C(=O)NCC(O)CO` (centres unmarked) [Compound 10, (E)-3-(6-(azetidin-1-yl)naphthalen-2-yl)-2-cyano-N-(2,3-dihydroxypropyl)acrylamide] were 21.98 and 19.13.
